In paper PMC5218480 (PLoS ONE, 2017):

Test system: MV-4-11 cells
Assay: Gene expression microarray analysis (Affymetrix PrimeView) and GSEA
Format: cell-based, human
Parameters: RFU PODN (11730768_x_at) / Fold change /veh PODN (11730768_x_at) / RFU LINC00158 (11744669_a_at) / Fold change /veh LINC00158 (11744669_a_at) / RFU DUSP10 (11751237_a_at) / Fold change /veh DUSP10 (11751237_a_at) / RFU ID3 (11757404_x_at) / Fold change /veh ID3 (11757404_x_at) / RFU PLEKHG5 (11737974_s_at) / Fold change /veh PLEKHG5 (11737974_s_at) / RFU LRRC4B (11730491_at) / Fold change /veh LRRC4B (11730491_at) / RFU GIMAP4 (11747438_a_at) / Fold change /veh GIMAP4 (11747438_a_at) / RFU KRT8 (11758183_x_at) / Fold change /veh KRT8 (11758183_x_at) / RFU CNN1 (11734310_a_at) / Fold change /veh CNN1 (11734310_a_at) / RFU VPS37D (11726825_at) / Fold change /veh VPS37D (11726825_at) / RFU C10orf10 (11716522_x_at) / Fold change /veh C10orf10 (11716522_x_at) / RFU KIR2DL2 /// KIR2DL4 /// KIR2DL5A /// KIR2DL5B /// KIR2DS1 /// KIR2DS2 /// KIR2DS3 /// KIR2DS4 /// KIR3DL3 /// KIR3DL3 /// KIR3DS1 (11738374_at) / Fold change /veh KIR2DL2 /// KIR2DL4 /// KIR2DL5A /// KIR2DL5B /// KIR2DS1 /// KIR2DS2 /// KIR2DS3 /// KIR2DS4 /// KIR3DL3 /// KIR3DL3 /// KIR3DS1 (11738374_at) / RFU C1QL1 (11718748_at) / Fold change /veh C1QL1 (11718748_at) / RFU TMPRSS4 (11747572_a_at) / Fold change /veh TMPRSS4 (11747572_a_at) / RFU HAMP (11756126_x_at) / Fold change /veh HAMP (11756126_x_at) / RFU RNFT2 (11725882_a_at) / Fold change /veh RNFT2 (11725882_a_at) / RFU NR4A2 (11747474_a_at) / Fold change /veh NR4A2 (11747474_a_at) / RFU ABCC12 (11746883_a_at) / Fold change /veh ABCC12 (11746883_a_at) / RFU TMEM136 (11760407_x_at) / Fold change /veh TMEM136 (11760407_x_at) / RFU CLDN22 /// WWC2 (11732394_at) / Fold change /veh CLDN22 /// WWC2 (11732394_at) / RFU HLA-DPB1 (11760878_x_at) / Fold change /veh HLA-DPB1 (11760878_x_at) / RFU SPINT1 (11716480_a_at) / Fold change /veh SPINT1 (11716480_a_at) / RFU GAP43 (11754022_s_at) / Fold change /veh GAP43 (11754022_s_at) / RFU A4GNT (11735810_at) / Fold change /veh A4GNT (11735810_at) / RFU PRB3 (11715151_x_at) / Fold change /veh PRB3 (11715151_x_at) / RFU TUBB4B (11761932_at) / Fold change /veh TUBB4B (11761932_at) / RFU CAPN14 (11732068_a_at) / Fold change /veh CAPN14 (11732068_a_at) / RFU TMCC2 (11721928_a_at) / Fold change /veh TMCC2 (11721928_a_at) / RFU IRGQ (11745062_a_at) / Fold change /veh IRGQ (11745062_a_at) / RFU FAM174B (11720279_a_at) / Fold change /veh FAM174B (11720279_a_at) / RFU TMPRSS4 (11748680_a_at) / Fold change /veh TMPRSS4 (11748680_a_at) / RFU FAM212B (11763350_a_at) / Fold change /veh FAM212B (11763350_a_at) / RFU PLEKHG5 (11743358_a_at) / Fold change /veh PLEKHG5 (11743358_a_at) / RFU ZSCAN30 (11745921_a_at) / Fold change /veh ZSCAN30 (11745921_a_at) / RFU CMKLR1 (11741424_a_at) / Fold change /veh CMKLR1 (11741424_a_at) / RFU LOC101060620 /// MAPK8IP1 (11723275_at) / Fold change /veh LOC101060620 /// MAPK8IP1 (11723275_at) / RFU SPTSSB (11747773_x_at) / Fold change /veh SPTSSB (11747773_x_at) / RFU PRSS12 (11739890_at) / Fold change /veh PRSS12 (11739890_at) / RFU BIN1 (11741810_x_at) / Fold change /veh BIN1 (11741810_x_at) / RFU WNT11 (11732464_a_at) / Fold change /veh WNT11 (11732464_a_at) / RFU C10orf10 (11716521_a_at) / Fold change /veh C10orf10 (11716521_a_at) / RFU C5orf56 (11738089_at) / Fold change /veh C5orf56 (11738089_at) / RFU CYB561 (11721691_x_at) / Fold change /veh CYB561 (11721691_x_at) / RFU ANKRD19P (11752326_a_at) / Fold change /veh ANKRD19P (11752326_a_at) / RFU OR2T12 /// OR2T33 /// OR2T8 (11738714_s_at) / Fold change /veh OR2T12 /// OR2T33 /// OR2T8 (11738714_s_at) / RFU VCAN (11748164_a_at) / Fold change /veh VCAN (11748164_a_at) / RFU JSRP1 (11732532_at) / Fold change /veh JSRP1 (11732532_at) / RFU KRTAP10-11 (11738290_x_at) / Fold change /veh KRTAP10-11 (11738290_x_at) / RFU MYO3A (11730013_a_at) / Fold change /veh MYO3A (11730013_a_at) / RFU EBF3 (11725865_a_at) / Fold change /veh EBF3 (11725865_a_at) / RFU CAMK2N1 (11719241_x_at) / Fold change /veh CAMK2N1 (11719241_x_at) / RFU C5orf56 (11738088_a_at) / Fold change /veh C5orf56 (11738088_a_at) / RFU OLFML3 (11715873_a_at) / Fold change /veh OLFML3 (11715873_a_at) / RFU LOC100653217 /// NTM (11731650_a_at) / Fold change /veh LOC100653217 /// NTM (11731650_a_at) / RFU MAPK11 (11762145_a_at) / Fold change /veh MAPK11 (11762145_a_at) / RFU FIZ1 (11724087_x_at) / Fold change /veh FIZ1 (11724087_x_at) / RFU OASL (11726364_x_at) / Fold change /veh OASL (11726364_x_at) / RFU SOX15 (11748057_x_at) / Fold change /veh SOX15 (11748057_x_at) / RFU CD79A (11719716_a_at) / Fold change /veh CD79A (11719716_a_at) / RFU HIST1H1D (11736915_at) / Fold change /veh HIST1H1D (11736915_at) / RFU CASKIN2 (11723855_a_at) / Fold change /veh CASKIN2 (11723855_a_at) / RFU LOC730098 (11760151_x_at) / Fold change /veh LOC730098 (11760151_x_at) / RFU OR4N2 (11742367_at) / Fold change /veh OR4N2 (11742367_at) / RFU PRRT2 (11749266_a_at) / Fold change /veh PRRT2 (11749266_a_at) / RFU SNX32 (11753110_a_at) / Fold change /veh SNX32 (11753110_a_at) / RFU CDHR5 (11726645_a_at) / Fold change /veh CDHR5 (11726645_a_at) / RFU RCAN1 (11760418_a_at) / Fold change /veh RCAN1 (11760418_a_at) / RFU FAM167A (11723789_a_at) / Fold change /veh FAM167A (11723789_a_at) / RFU FAM26E (11764081_at) / Fold change /veh FAM26E (11764081_at) / RFU ISYNA1 (11749810_s_at) / Fold change /veh ISYNA1 (11749810_s_at) / RFU ACY1 (11761880_at) / Fold change /veh ACY1 (11761880_at) / RFU 11764098_at / Fold change /veh 11764098_at / RFU SAMD14 (11745864_x_at) / Fold change /veh SAMD14 (11745864_x_at) / RFU NPB (11741838_a_at) / Fold change /veh NPB (11741838_a_at) / RFU TMPRSS6 (11731388_a_at) / Fold change /veh TMPRSS6 (11731388_a_at) / RFU KRTAP10-2 (11738614_at) / Fold change /veh KRTAP10-2 (11738614_at) / RFU ARHGAP8 /// PRR5-ARHGAP8 (11727945_x_at) / Fold change /veh ARHGAP8 /// PRR5-ARHGAP8 (11727945_x_at) / RFU KRTAP5-7 /// NADSYN1 (11734609_at) / Fold change /veh KRTAP5-7 /// NADSYN1 (11734609_at) / RFU RASL12 (11751679_a_at) / Fold change /veh RASL12 (11751679_a_at) / RFU CDKN2B (11736163_a_at) / Fold change /veh CDKN2B (11736163_a_at) / RFU PRF1 (11729649_at) / Fold change /veh PRF1 (11729649_at) / RFU, ZNF638 /// ZNF638-IT1 / Fold change vs veh, ZNF638 /// ZNF638-IT1 / RFU, PANK3 / Fold change vs veh, PANK3 / RFU, SH3YL1 / Fold change vs veh, SH3YL1 / RFU, ZEB2 / Fold change vs veh, ZEB2 / RFU, NRIP1 / Fold change vs veh, NRIP1 / RFU, PTTG1IP / Fold change vs veh, PTTG1IP / RFU, CAPN2 / Fold change vs veh, CAPN2 / RFU, MED14 / Fold change vs veh, MED14 / RFU, SNORA58 / Fold change vs veh, SNORA58 / RFU, C1orf63 / Fold change vs veh, C1orf63 / RFU, LRRFIP1 / Fold change vs veh, LRRFIP1 / RFU, NDUFAF7 / Fold change vs veh, NDUFAF7 / RFU, SLC12A2 / Fold change vs veh, SLC12A2 / RFU, IBTK / Fold change vs veh, IBTK / RFU, ESF1 / Fold change vs veh, ESF1 / Fold change vs veh, TMEM50B / RFU, TAOK1 / Fold change vs veh, TAOK1 / RFU, ACBD3 / Fold change vs veh, ACBD3 / RFU, TMA16 / Fold change vs veh, TMA16 / RFU, RWDD3 / Fold change vs veh, RWDD3 / RFU, BCAT1 / Fold change vs veh, BCAT1 / RFU, EDEM3 / Fold change vs veh, EDEM3 / RFU, TMEM33 / Fold change vs veh, TMEM33 / RFU, WDR75 / Fold change vs veh, WDR75 / RFU, AHCTF1 / Fold change vs veh, AHCTF1 / RFU, TFRC / Fold change vs veh, TFRC / RFU, ZDHHC17 / Fold change vs veh, ZDHHC17 / RFU, NOM1 / Fold change vs veh, NOM1 / RFU, ARL8B / Fold change vs veh, ARL8B / RFU, ZBTB11 / Fold change vs veh, ZBTB11 / RFU, TAMM41 / Fold change vs veh, TAMM41 / RFU, KIAA1704 /// LOC100996395 / Fold change vs veh, KIAA1704 /// LOC100996395 / RFU, ING1 / Fold change vs veh, ING1 / RFU, TRMT61B / Fold change vs veh, TRMT61B / RFU, FUBP3 / Fold change vs veh, FUBP3 / RFU, TP53 / Fold change vs veh, TP53 / RFU, TNKS2 / Fold change vs veh, TNKS2 / RFU, ZFP14 / Fold change vs veh, ZFP14 / RFU, ACTR2 / Fold change vs veh, ACTR2 / RFU, PPP3R1 / Fold change vs veh, PPP3R1 / RFU, PIK3R1 / Fold change vs veh, PIK3R1 / RFU, HNRNPA1 / Fold change vs veh, HNRNPA1 / RFU, RNF170 / Fold change vs veh, RNF170 / RFU, ZNF28 / Fold change vs veh, ZNF28 / RFU, RNGTT / Fold change vs veh, RNGTT / RFU, OGT / Fold change vs veh, OGT / RFU, BRD1 / Fold change vs veh, BRD1 / RFU, MARS / Fold change vs veh, MARS / RFU, ZNF655 / Fold change vs veh, ZNF655 / RFU, FAHD1 / Fold change vs veh, FAHD1 / RFU, BDP1 / Fold change vs veh, BDP1 / RFU, LRRCC1 / Fold change vs veh, LRRCC1 / RFU, ARID1A / Fold change vs veh, ARID1A / RFU, ZNF146 / Fold change vs veh, ZNF146 / RFU, ZNF330 / Fold change vs veh, ZNF330 / RFU, GPN3 / Fold change vs veh, GPN3 / RFU, C9orf123 / Fold change vs veh, C9orf123 / RFU, N4BP2L2 / Fold change vs veh, N4BP2L2 / RFU, ARFIP1 / Fold change vs veh, ARFIP1 / RFU, FAM179B / Fold change vs veh, FAM179B / RFU, BCL10 / Fold change vs veh, BCL10 / RFU, UHRF1BP1L / Fold change vs veh, UHRF1BP1L / RFU, BET1 / Fold change vs veh, BET1 / RFU, CNOT2 / Fold change vs veh, CNOT2 / RFU, ZNF268 / Fold change vs veh, ZNF268 / Fold change vs veh, ZNF507 / RFU, DGCR2 / Fold change vs veh, DGCR2 / RFU, WDSUB1 / Fold change vs veh, WDSUB1 / Fold change vs veh, HSP90B1 /// MIR3652 / RFU, ADSS / Fold change vs veh, ADSS / RFU, GK / Fold change vs veh, GK / RFU, ZNF148 / Fold change vs veh, ZNF148 / RFU, TAF9 / Fold change vs veh, TAF9 / RFU, SLC1A5 / Fold change vs veh, SLC1A5 / RFU, SLMO2 / Fold change vs veh, SLMO2 / RFU, ABCC4 / Fold change vs veh, ABCC4 / RFU, LOC101060439 /// RAP1B / Fold change vs veh, LOC101060439 /// RAP1B / RFU, RFX7 / Fold change vs veh, RFX7 / RFU, GTPBP10 / Fold change vs veh, GTPBP10 / RFU, CNEP1R1 / Fold change vs veh, CNEP1R1 / RFU, BIVM-ERCC5 /// ERCC5 / Fold change vs veh, BIVM-ERCC5 /// ERCC5 / RFU, ILF3 / Fold change vs veh, ILF3 / RFU 11762660_at / Fold change /veh 11762660_at / RFU VCAN (11757783_s_at) / Fold change /veh VCAN (11757783_s_at) / RFU DDX43 (11728927_at) / Fold change /veh DDX43 (11728927_at) / RFU KRT8 (11758188_x_at) / Fold change /veh KRT8 (11758188_x_at) / RFU NKD1 (11759106_at) / Fold change /veh NKD1 (11759106_at) / RFU SRD5A1 (11742802_a_at) / Fold change /veh SRD5A1 (11742802_a_at) / RFU TPSAB1 /// TPSB2 (11721975_s_at) / Fold change /veh TPSAB1 /// TPSB2 (11721975_s_at) / RFU GSTM3 (11746129_a_at) / Fold change /veh GSTM3 (11746129_a_at) / RFU IL23R (11737362_x_at) / Fold change /veh IL23R (11737362_x_at) / RFU TMEM51 (11727254_a_at) / Fold change /veh TMEM51 (11727254_a_at) / RFU PIWIL2 (11732686_x_at) / Fold change /veh PIWIL2 (11732686_x_at) / RFU ORM1 (11744905_x_at) / Fold change /veh ORM1 (11744905_x_at) / RFU CCDC152 (11743942_at) / Fold change /veh CCDC152 (11743942_at) / RFU ECM1 (11717891_a_at) / Fold change /veh ECM1 (11717891_a_at) / RFU IL23R (11748794_a_at) / Fold change /veh IL23R (11748794_a_at) / RFU TNFAIP8L3 (11732012_x_at) / Fold change /veh TNFAIP8L3 (11732012_x_at) / RFU MBOAT4 (11741988_at) / Fold change /veh MBOAT4 (11741988_at) / RFU 11764193_at / Fold change /veh 11764193_at / RFU TMEM53 (11763286_at) / Fold change /veh TMEM53 (11763286_at) / RFU MAGEB2 (11727129_at) / Fold change /veh MAGEB2 (11727129_at) / RFU TMEM200A (11744735_a_at) / Fold change /veh TMEM200A (11744735_a_at) / RFU CCDC152 (11751479_a_at) / Fold change /veh CCDC152 (11751479_a_at) / RFU FAM211A (11726209_a_at) / Fold change /veh FAM211A (11726209_a_at) / RFU RGS16 (11746705_a_at) / Fold change /veh RGS16 (11746705_a_at) / RFU VCAN (11755009_s_at) / Fold change /veh VCAN (11755009_s_at) / RFU RHOB (11743442_s_at) / Fold change /veh RHOB (11743442_s_at) / RFU RGS16 (11720943_a_at) / Fold change /veh RGS16 (11720943_a_at) / RFU RGS16 (11720944_at) / Fold change /veh RGS16 (11720944_at) / RFU, VPS4B / Fold change vs veh, VPS4B / RFU, CREB1 / Fold change vs veh, CREB1 / RFU, DNAJC13 / Fold change vs veh, DNAJC13 / RFU, GNAQ / Fold change vs veh, GNAQ / RFU, CDK5R1 / Fold change vs veh, CDK5R1 / RFU, ZRANB3 / Fold change vs veh, ZRANB3 / RFU, CUL4A / Fold change vs veh, CUL4A / RFU, CCNY / Fold change vs veh, CCNY / RFU, UFL1 / Fold change vs veh, UFL1 / RFU, COG3 / Fold change vs veh, COG3 / RFU, DIAPH2 / Fold change vs veh, DIAPH2 / RFU, SKA2 / Fold change vs veh, SKA2 / RFU, AFF3 / Fold change vs veh, AFF3 / RFU, LMF1 / Fold change vs veh, LMF1 / RFU, IPO11 / Fold change vs veh, IPO11 / RFU, DFFB / Fold change vs veh, DFFB / RFU, FOXP1 / Fold change vs veh, FOXP1 / RFU, CARD8 / Fold change vs veh, CARD8 / RFU, STRN3 / Fold change vs veh, STRN3 / RFU, ADK / Fold change vs veh, ADK / RFU, RASSF2 / Fold change vs veh, RASSF2 / RFU, WIPF1 / Fold change vs veh, WIPF1 / RFU, LARP1B / Fold change vs veh, LARP1B / RFU, RASA1 / Fold change vs veh, RASA1 / RFU, RB1 / Fold change vs veh, RB1 / RFU, PPFIA1 / Fold change vs veh, PPFIA1 / RFU, MAT2A / Fold change vs veh, MAT2A / RFU, CCT5 / Fold change vs veh, CCT5 / RFU, WDR92 / Fold change vs veh, WDR92 / RFU, CUX1 / Fold change vs veh, CUX1 / RFU, TTC7A / Fold change vs veh, TTC7A / RFU, TMEM135 / Fold change vs veh, TMEM135 / RFU, DEPTOR / Fold change vs veh, DEPTOR / RFU, CPM / Fold change vs veh, CPM / RFU, DNAJB6 / Fold change vs veh, DNAJB6 / RFU, CACNA2D3 / Fold change vs veh, CACNA2D3 / RFU, DTX4 / Fold change vs veh, DTX4 / RFU, TFCP2 / Fold change vs veh, TFCP2 / RFU, GMCL1 /// GMCL1P1 / Fold change vs veh, GMCL1 /// GMCL1P1 / RFU, AEBP2 / Fold change vs veh, AEBP2 / RFU, SNHG1 /// SNORD22 /// SNORD25 /// SNORD26 /// SNORD27 /// SNORD28 /// SNORD29 /// SNORD31 / Fold change vs veh, SNHG1 /// SNORD22 /// SNORD25 /// SNORD26 /// SNORD27 /// SNORD28 /// SNORD29 /// SNORD31 / Fold change (Aza/veh), C12orf56 (ProbeSet 11735607_a_at) / Fold change (ACY-1035/veh), C12orf56 (ProbeSet 11735607_a_at) / Fold change (Aza/veh), FGFR1OP (ProbeSet 11751329_s_at) / Fold change (ACY-1035/veh), FGFR1OP (ProbeSet 11751329_s_at) / Fold change (Aza/veh), VPS36 (ProbeSet 11739960_a_at) / Fold change (ACY-1035/veh), VPS36 (ProbeSet 11739960_a_at) / RFU SYPL1 (11715823_x_at) / Fold change /veh SYPL1 (11715823_x_at) / RFU IGFBP7 (11715501_s_at) / Fold change /veh IGFBP7 (11715501_s_at) / RFU REEP3 (11722064_at) / Fold change /veh REEP3 (11722064_at) / RFU IGLL1 (11728026_x_at) / Fold change /veh IGLL1 (11728026_x_at): dose or concentration left out as unconfirmed
Details: MV-4-11 cells, 48 hours

For `Nc1ncn([C@@H]2O[C@H](CO)[C@@H](O)[C@H]2O)c(=O)n1` [azacitidine], the “Fold change /veh CAMK2N1 (11719241_x_at)” value was 0.94.
